Here are results for 21 compounds from US20240254118A1, “PRMT5 INHIBITORS AND USES THEREOF” (Gilead Sciences, Inc., priority 2022, published 2024).

Assay [1] has as its system SDMA signal (PRMT5 inhibition) in HCT116 MTAP-deleted cells. The assay can be described thus: Symmetric di-methyl arginine image-based high content screen assay (SDMA assay), HCT116 MTAP-deleted. Conditions: SDMA assay; for EC50: Homo sapiens, HCT-116, 72 h, 3 days of treatment, cell line not given, taken as HCT116 MTAP-deleted, read-out: EC50 (SDMA assay); for EC50 selectivity (SDMA assay): taken as HCT116 WT versus MTAP-deleted. In kind it is cell-based. The essentials: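 HCT116 MTAP-deleted cells treated with compound until Day 3, then formalin-fixed, permeabilized and immunostained for SDMA, with DAPI nuclear counterstain. Imaged by high-content microscopy; SDMA read-out is mean Alexa 488 intensity per DAPI-defined cell, reflecting PRMT5 inhibition.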

Assay [2] has as its system HCT116 MTAP-deleted cells. Put plainly: Cell viability assay (CellTiter-Glo, 7 days), HCT116 MTAP-deleted. Conditions: Homo sapiens, HCT-116, 168 h. Background: ATP-based viability assays read luminescence as a measure of living cells.

A value given as a limit tells only on which side of the number the result lay.

What is called EC50 is the concentration that produces a half-maximal response. Usually CC50 stands for the concentration at which the toxic effect on the cells reaches its halfway point. Lower therefore signals harm at low concentration. For the compound `CN(C(=O)C12CC(C1)C2)N(Cc1ccc(Cl)cn1)C(=O)c1ccc2nc(N)c3cnn(C)c3c2c1` [Example 140, 4-amino-N′-(bicyclo[1.1.1]pentane-1-carbonyl)-N-((5-chloropyridin-2-yl)methyl)-N′,1-dimethyl-1H-pyrazolo[4,3-c]quinoline-8-carbohydrazide], in assay [1], the concentration for a half-maximal effect (EC50) is < 1 nM and the “EC50 selectivity (SDMA assay)” value was determined as 456. The CC50 in assay [2] is < 100 nM.

In the case of `Cn1ncc2c(N)nc3cc(Cl)c(C(=O)N(Cc4ccc(C(F)(F)F)cn4)N4CCCC4=O)cc3c21` [Example 141, 4-amino-7-chloro-1-methyl-N-(2-oxopyrrolidin-1-yl)-N-[[5-(trifluoromethyl)-2-pyridyl]methyl]pyrazolo[4,3-c]quinoline-8-carboxamide], in assay [1], the EC50 lay in the range of 1 to 5 nM and the “EC50 selectivity (SDMA assay)” value was 58. Further, in assay [2], the half-maximal cytotoxic concentration (CC50) is < 100 nM.

For `Cn1ncc2c(N)nc3cc(F)c(C(=O)N(Cc4ccc(C(F)(F)F)cn4)N4CCOCC4)cc3c21` [Example 142, 4-amino-7-fluoro-1-methyl-N-morpholino-N-((5-(trifluoromethyl)pyridin-2-yl)methyl)-1H-pyrazolo[4,3-c]quinoline-8-carboxamide], in assay [1], the concentration for a half-maximal effect (EC50) was < 1 nM and the “EC50 selectivity (SDMA assay)” value was 32. For the same compound, the CC50 in assay [2] was < 100 nM.

With `Cn1ncc2c(N)nc3cc(Cl)c(C(=O)N(Cc4ccc(C(F)(F)F)cn4)N4CCCOC4=O)cc3c21` [Example 143, 4-amino-7-chloro-1-methyl-N-(2-oxo-1,3-oxazinan-3-yl)-N-[[5-(trifluoromethyl)-2-pyridyl]methyl]pyrazolo[4,3-c]quinoline-8-carboxamide], in assay [1], the half-maximal effective concentration (EC50) lay within 1 to 5 nM and the “EC50 selectivity (SDMA assay)” value is on record as 67. For the same compound, the cytotoxic concentration (CC50) in assay [2] was < 100 nM.

Turning to `Cn1ncc2c(N)nc3cc(F)c(C(=O)N(Cc4ccc(C(F)(F)F)cn4)N4CCCOC4=O)cc3c21` [Example 144, 4-amino-7-fluoro-1-methyl-N-(2-oxo-1,3-oxazinan-3-yl)-N-[[5-(trifluoromethyl)-2-pyridyl]methyl]pyrazolo[4,3-c]quinoline-8-carboxamide], in assay [1], the EC50 fell in the range of 1 to 5 nM and the “EC50 selectivity (SDMA assay)” value was determined as 43. In addition, the 50% cytotoxic concentration (CC50) in assay [2] is < 100 nM.

As to `Cn1ncc2c(N)nc3cc(F)c(C(=O)N(Cc4ccc(C(F)(F)F)cn4)N4CCOC4=O)cc3c21` [Example 145, 4-amino-7-fluoro-1-methyl-N-(2-oxooxazolidin-3-yl)-N-[[5-(trifluoromethyl)-2-pyridyl]methyl]pyrazolo[4,3-c]quinoline-8-carboxamide], in assay [1], the 50% effective concentration (EC50) is < 1 nM and the “EC50 selectivity (SDMA assay)” value came out at 45. The CC50 in assay [2] is < 100 nM.

In the case of `CN(C(=O)C1CC1)N(Cc1ccc(C(F)(F)F)cn1)C(=O)c1cc2c(cc1F)nc(N)c1cnn(C)c12` [Example 146, 4-amino-N′-(cyclopropanecarbonyl)-7-fluoro-N′,1-dimethyl-N-[[5-(trifluoromethyl)-2-pyridyl]methyl]pyrazolo[4,3-c]quinoline-8-carbohydrazide], in assay [1], the concentration giving a half-maximal response (EC50) was < 1 nM and the “EC50 selectivity (SDMA assay)” value was found to be 16. In addition, the CC50 in assay [2] was < 100 nM.

In the case of `CC(=O)N(c1ccccn1)N(Cc1ccc(C(F)(F)F)cn1)C(=O)c1ccc2nc(N)c3cnn(C)c3c2c1` [Example 147, N′-acetyl-4-amino-1-methyl-N′-(2-pyridyl)-N-[[5-(trifluoromethyl)-2-pyridyl]methyl]pyrazolo[4,3-c]quinoline-8-carbohydrazide], in assay [1], the EC50 is < 1 nM and the “EC50 selectivity (SDMA assay)” value came out at 16. Moreover, the cytotoxic concentration (CC50) in assay [2] was < 100 nM.

For `Cn1ncc2c(N)nc3cc(Cl)c(C(=O)N(Cc4ccc(C(F)(F)F)cn4)N4CCCCC4=O)cc3c21` [Example 148, 4-amino-7-chloro-1-methyl-N-(2-oxopiperidin-1-yl)-N-((5-(trifluoromethyl)pyridin-2-yl)methyl)-1H-pyrazolo[4,3-c]quinoline-8-carboxamide], in assay [1], the EC50 lay within 1 to 5 nM and the “EC50 selectivity (SDMA assay)” value came to 66. Further, in assay [2], the 50% cytotoxic concentration (CC50) is < 100 nM.

Turning to `Cn1ncc2c(N)nc3cc(F)c(C(=O)N(Cc4ccc(C(F)(F)F)cn4)N4CCCCC4=O)cc3c21` [Example 149, 4-amino-7-fluoro-1-methyl-N-(2-oxopiperidin-1-yl)-N-((5-(trifluoromethyl)pyridin-2-yl)methyl)-1H-pyrazolo[4,3-c]quinoline-8-carboxamide], in assay [1], the EC50 was 1 to 5 nM and the “EC50 selectivity (SDMA assay)” value is recorded as 18. Moreover, in assay [2], the 50% cytotoxic concentration (CC50) was < 100 nM.

Regarding `Cn1ncc2c3cc(C(=O)N(Cc4ccc(C(F)(F)F)cn4)N4CCOC4=O)ccc3nc(N)c21` [Example 150, 4-amino-3-methyl-N-(2-oxooxazolidin-3-yl)-N-((5-(trifluoromethyl)pyridin-2-yl)methyl)-3H-pyrazolo[3,4-c]quinoline-8-carboxamide], in assay [1], the 50% effective concentration (EC50) is 1 to 5 nM and the “EC50 selectivity (SDMA assay)” value was 138. In assay [2], the half-maximal cytotoxic concentration (CC50) was < 100 nM.

Take `Cn1ncc2c3cc(C(=O)N(Cc4ccc(C(F)(F)F)cn4)N4CCCC4=O)ccc3nc(N)c21` [Example 151, 4-amino-3-methyl-N-(2-oxopyrrolidin-1-yl)-N-((5-(trifluoromethyl)pyridin-2-yl)methyl)-3H-pyrazolo[3,4-c]quinoline-8-carboxamide]: in assay [1], the EC50 was < 1 nM and the “EC50 selectivity (SDMA assay)” value is reported as 525. Besides, the CC50 in assay [2] is < 100 nM.

On to `CC(=O)N(C)N(Cc1ccc(C(F)(F)F)cn1)C(=O)c1ccc2nc(N)c3c(cnn3C)c2c1` [Example 152, N′-acetyl-4-amino-N′,3-dimethyl-N-((5-(trifluoromethyl)pyridin-2-yl)methyl)-3H-pyrazolo[3,4-c]quinoline-8-carbohydrazide], for which, in assay [1], the EC50 lay within 1 to 5 nM and the “EC50 selectivity (SDMA assay)” value was determined as 128. The same compound registered a CC50 in assay [2] of 100 to 1000 nM.

With `CC(=O)N(C)N(Cc1ccc(C(F)(F)F)cc1F)C(=O)c1ccc2nc(N)c3c(cnn3C)c2c1` [Example 153, N′-acetyl-4-amino-N-(2-fluoro-4-(trifluoromethyl)benzyl)-N′,3-dimethyl-3H-pyrazolo[3,4-c]quinoline-8-carbohydrazide], in assay [1], the EC50 was in the range of 1 to 5 nM and the “EC50 selectivity (SDMA assay)” value is recorded as 54. The half-maximal cytotoxic concentration (CC50) in assay [2] is < 100 nM.

On to `CCN(C(C)=O)N(Cc1ccc(OC(F)F)cc1F)C(=O)c1cc2c(cc1F)nc(N)c1cnn(C)c12` [Example 154, N′-acetyl-4-amino-N-(4-(difluoromethoxy)-2-fluorobenzyl)-N′-ethyl-7-fluoro-1-methyl-1H-pyrazolo[4,3-c]quinoline-8-carbohydrazide], for which, in assay [1], the EC50 is < 1 nM and the “EC50 selectivity (SDMA assay)” value turned out to be 45. Besides, in assay [2], the CC50 is < 100 nM.

As to `CN(C(=O)C1CC1)N(Cc1ccc(Cl)cc1F)C(=O)c1ccc2nc(N)c3cnn(C)c3c2c1` [Example 155, 4-amino-N-(4-chloro-2-fluorobenzyl)-N′-(cyclopropanecarbonyl)-N′,1-dimethyl-1H-pyrazolo[4,3-c]quinoline-8-carbohydrazide], in assay [1], the EC50 was < 1 nM and the “EC50 selectivity (SDMA assay)” value came out at 94. Further, the CC50 in assay [2] is < 100 nM.

Take `CN(C(=O)N1CC(F)C1)N(Cc1ccc(C(F)(F)F)cn1)C(=O)c1ccc2nc(N)c3cnn(C)c3c2c1` [Example 156, 4-amino-N′-(3-fluoroazetidine-1-carbonyl)-N′,1-dimethyl-N-((5-(trifluoromethyl)pyridin-2-yl)methyl)-1H-pyrazolo[4,3-c]quinoline-8-carbohydrazide]: in assay [1], the EC50 was < 1 nM and the “EC50 selectivity (SDMA assay)” value is 34. Moreover, in assay [2], the half-maximal cytotoxic concentration (CC50) is < 100 nM.

As to `CN(C(=O)N1CC(F)(F)C1)N(Cc1ccc(C(F)(F)F)cn1)C(=O)c1ccc2nc(N)c3cnn(C)c3c2c1` [Example 157, 4-amino-N′-(3,3-difluoroazetidine-1-carbonyl)-N′,1-dimethyl-N-((5-(trifluoromethyl)pyridin-2-yl)methyl)-1H-pyrazolo[4,3-c]quinoline-8-carbohydrazide], in assay [1], the EC50 is < 1 nM and the “EC50 selectivity (SDMA assay)” value was determined as 54. In assay [2], the CC50 was < 100 nM.

Turning to `CN(C(=O)c1nccn1C)N(Cc1ccc(C(F)(F)F)cn1)C(=O)c1ccc2nc(N)c3cnn(C)c3c2c1` [Example 158, 4-amino-N′,1-dimethyl-N′-(1-methyl-1H-imidazole-2-carbonyl)-N-((5-(trifluoromethyl)pyridin-2-yl)methyl)-1H-pyrazolo[4,3-c]quinoline-8-carbohydrazide], in assay [1], the EC50 is < 1 nM and the “EC50 selectivity (SDMA assay)” value worked out at 4. The 50% cytotoxic concentration (CC50) in assay [2] was < 100 nM.

As for `Cn1ncc2c(N)nc3ccc(C(=O)N(Cc4ccc(C(F)(F)F)cn4)N4CCC5(CC5)C4=O)cc3c21` [Example 159, 4-amino-1-methyl-N-(4-oxo-5-azaspiro[2.4]heptan-5-yl)-N-((5-(trifluoromethyl)pyridin-2-yl)methyl)-1H-pyrazolo[4,3-c]quinoline-8-carboxamide], in assay [1], the EC50 is < 1 nM and the “EC50 selectivity (SDMA assay)” value is given as 69. Also, in assay [2], the cytotoxic concentration (CC50) was < 100 nM.

As for `CNC(=O)c1ccc(-c2ccc(CN(C(=O)c3ccc4nc(N)c5cnn(C)c5c4c3)N3CCCCC3=O)nc2)cn1` [Example 160, 4-amino-1-methyl-N-((6′-(methylcarbamoyl)-[3,3′-bipyridin]-6-yl)methyl)-N-(2-oxopiperidin-1-yl)-1H-pyrazolo[4,3-c]quinoline-8-carboxamide], in assay [1], the EC50 lay in the range of 1 to 5 nM and the “EC50 selectivity (SDMA assay)” value was determined as 10. Also, the CC50 in assay [2] is < 100 nM.
